ChEMBL document CHEMBL1137431, “Discovery of small molecule integrin alphavbeta3 antagonists as novel anticancer agents” (J Med Chem, 2006)

What was measured:
[1] = test system: HEY; experiment: Cytotoxicity against human HEY cell line at 20 uM by MTT assay; format: functional
[2] = test system: MCF7; experiment: Cytotoxicity against human MCF7 cell line by MTT assay; format: functional, cell-based
[3] = test system: HEY; experiment: Cytotoxicity against human HEY cell line by MTT assay; format: functional, cell-based
[4] = test system: MDA-MB-435; experiment: Cytotoxicity against human MDA-MB-435 cell line by MTT assay; format: functional, cell-based
[5] = target: Integrin alpha-V/beta-3 (Homo sapiens, UniProt P05106+P06756); experiment: Inhibition of [125I]echistatin binding to integrin alphaVbeta3 receptor; format: protein-complex assay
Sequence of Integrin alpha-V/beta-3 (P05106 27-788 limits assumed): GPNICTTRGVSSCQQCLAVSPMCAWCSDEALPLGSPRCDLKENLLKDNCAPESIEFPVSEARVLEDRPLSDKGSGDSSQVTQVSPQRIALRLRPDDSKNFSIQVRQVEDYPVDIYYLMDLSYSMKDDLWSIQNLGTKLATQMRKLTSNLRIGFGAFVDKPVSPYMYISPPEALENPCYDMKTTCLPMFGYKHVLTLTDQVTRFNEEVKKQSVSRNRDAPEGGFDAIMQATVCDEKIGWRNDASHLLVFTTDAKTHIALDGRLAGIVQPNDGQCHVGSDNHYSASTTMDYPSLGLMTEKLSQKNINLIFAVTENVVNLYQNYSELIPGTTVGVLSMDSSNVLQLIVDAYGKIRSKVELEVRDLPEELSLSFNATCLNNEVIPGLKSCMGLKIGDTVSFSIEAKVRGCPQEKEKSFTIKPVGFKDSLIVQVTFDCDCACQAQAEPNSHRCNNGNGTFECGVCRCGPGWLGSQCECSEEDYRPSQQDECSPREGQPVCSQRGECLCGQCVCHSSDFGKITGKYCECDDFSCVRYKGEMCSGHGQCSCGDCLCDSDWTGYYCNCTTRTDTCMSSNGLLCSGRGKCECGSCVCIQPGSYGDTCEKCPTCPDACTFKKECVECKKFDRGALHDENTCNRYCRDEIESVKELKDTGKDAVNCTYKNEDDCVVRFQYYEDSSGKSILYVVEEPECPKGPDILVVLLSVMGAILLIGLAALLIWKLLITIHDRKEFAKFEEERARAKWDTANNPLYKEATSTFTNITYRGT
Sequence of Integrin alpha-V/beta-3 (P06756 31-889 limits assumed): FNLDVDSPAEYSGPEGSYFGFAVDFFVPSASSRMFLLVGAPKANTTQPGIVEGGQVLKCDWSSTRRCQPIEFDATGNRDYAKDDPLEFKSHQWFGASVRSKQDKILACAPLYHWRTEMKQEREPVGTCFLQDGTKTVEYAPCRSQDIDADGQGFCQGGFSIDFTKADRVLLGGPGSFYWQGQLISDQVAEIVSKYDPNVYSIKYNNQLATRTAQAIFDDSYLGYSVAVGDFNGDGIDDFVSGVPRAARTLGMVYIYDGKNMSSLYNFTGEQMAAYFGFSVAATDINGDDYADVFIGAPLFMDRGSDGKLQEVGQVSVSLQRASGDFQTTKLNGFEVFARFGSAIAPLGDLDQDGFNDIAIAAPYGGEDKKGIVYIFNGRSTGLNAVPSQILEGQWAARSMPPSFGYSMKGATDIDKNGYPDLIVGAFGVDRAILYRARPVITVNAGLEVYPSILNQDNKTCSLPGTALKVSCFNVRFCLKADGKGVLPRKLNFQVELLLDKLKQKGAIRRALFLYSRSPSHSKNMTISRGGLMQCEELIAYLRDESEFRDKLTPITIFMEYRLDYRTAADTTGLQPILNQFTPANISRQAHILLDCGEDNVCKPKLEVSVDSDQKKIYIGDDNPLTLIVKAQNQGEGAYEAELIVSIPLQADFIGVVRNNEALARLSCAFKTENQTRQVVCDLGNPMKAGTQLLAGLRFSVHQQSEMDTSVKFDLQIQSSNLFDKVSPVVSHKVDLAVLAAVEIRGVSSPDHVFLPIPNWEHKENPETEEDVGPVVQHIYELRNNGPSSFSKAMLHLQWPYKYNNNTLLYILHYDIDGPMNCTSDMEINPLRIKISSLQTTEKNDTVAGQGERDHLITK
Sequence of Integrin alpha-V/beta-3 (P06756 891-1048 limits assumed): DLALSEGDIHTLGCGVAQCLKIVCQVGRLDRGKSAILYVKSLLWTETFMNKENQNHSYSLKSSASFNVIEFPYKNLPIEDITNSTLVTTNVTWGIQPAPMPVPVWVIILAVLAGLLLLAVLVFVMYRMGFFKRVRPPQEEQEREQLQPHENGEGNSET

[6] = test system: MDA-MB-435; experiment: Cytotoxicity against human MDA-MB-435 cell line at 20 uM by MTT assay; format: functional
[7] = test system: NCI-H1975; experiment: Cytotoxicity against human NCI-H1975 cell line by MTT assay; format: functional, cell-based
[8] = test system: NIH3T3; experiment: Cytotoxicity against mouse NIH3T3 cell line by MTT assay; format: functional, cell-based
[9] = test system: MCF7; experiment: Cytotoxicity against human MCF7 cell line at 20 uM by MTT assay; format: functional

Row | SMILES | inhibition at 20 µM [1] [%] | IC50 [2] [µM] | IC50 [3] [µM] | IC50 [4] [µM] | other results
1 | Nc1nc(=O)c2cc(CSc3ccc(C(=O)NC(CCC(=O)O)C(=O)O)cc3)ccc2[nH]1 (configuration not stated) | 0 |  |  |  | 
2 | Nc1nc(O)c2cc(COc3ccc(C(=O)NC(CCC(=O)O)C(=O)O)cc3)ccc2n1 (configuration not stated) | 6 |  |  |  | 
3 | COc1cc(/C=N/Nc2nc(Nc3ccc(F)cc3)nc(N3CCCCC3)n2)ccc1OCC(=O)O | 0 |  |  |  | 
4 | CCn1cc(C(=O)O)c(=O)c2cc(F)c(N3CCN(S(=O)(=O)c4ccc(NC(C)=O)cc4)CC3)cc21 | 0 |  |  |  | 
5 | O=C(O)c1ccc(-c2ccc(/C=N/Nc3nc(Nc4ccccc4)nc(Nc4ccccc4)n3)o2)cc1 |  | > 20 | 21 | 18 | 
6 | CC(=O)Nc1nc(O)c2nc(CCN(C)c3ccc(C(=O)O)cc3)cnc2n1 | 0 |  |  |  | 
7 | Cc1ccnc(NS(=O)(=O)c2ccc(NC(=O)c3ccc(C(=O)O)cc3C(=O)O)cc2)n1 | 0 |  |  |  | 
8 | CC1=NN(c2ccc(C(=O)O)cc2)C(=O)/C1=C/c1ccc(-c2ccc(S(N)(=O)=O)cc2)o1 | 6 | 19 | > 20 | > 20 | 
9 | O=C(CCCCn1cnc2c(S)ncnc21)Nc1ccc(C(=O)O)c(O)c1 | 0 |  |  |  | 
10 | CCOc1cc(/C=C2/S/C(=N\c3ccc(C(=O)O)cc3)N(C)C2=O)ccc1O | 51 | > 20 | 13 | 0.34 | IC50 [5]: 0.24 µM; inhibition at 20 µM [6]: 94%; IC50 [7]: > 20 µM; IC50 [8]: > 20 µM; inhibition at 20 µM [9]: 37%
11 | CN(C)c1ccc(/C=C2\SC(=Nc3ccc(O)cc3)NC2=O)cc1 |  | > 20 | > 20 | 2.8 | IC50 [5]: > 1 µM
12 | Cc1nnc(N/N=C/c2ccc(OCC(=O)O)cc2)nc1O | 0 |  |  |  | 
13 | COc1cc(O)c(Cl)cc1/C=C1\S/C(=N/c2cccc(C(=O)O)c2)N(C)C1=O | 0 |  |  |  | inhibition at 20 µM [6]: 3%; inhibition at 20 µM [9]: 9%
14 | CCOc1ccc(/N=C2/S/C(=C\c3ccc(N(C)C)cc3)C(=O)N2CC)cc1 |  | > 20 | > 20 | > 20 | IC50 [7]: > 20 µM; IC50 [8]: > 20 µM
15 | Cc1ccc(NC(=O)CN2C(=O)N/C(=C\c3cccn3-c3cccc(C(=O)O)c3)C2=O)cc1 | 5 | > 20 | > 20 | > 20 | IC50 [7]: > 20 µM; IC50 [8]: > 20 µM
16 | CCOc1cc(/C=N/Nc2nc(Nc3ccccc3)nc(N3CCCCC3)n2)ccc1OCC(=O)O | 0 |  |  |  | 
17 | CC1=C(C#N)c2nc(N)c(C#N)c(C)c2/C1=C/c1ccc(-c2ccc(Cl)c(C(=O)O)c2)o1 | 14 |  |  |  | 
18 | Nc1ccc(C(=O)Nc2nc3ccc(C(=O)O)cc3s2)cc1 | 0 |  |  |  | 
19 | O=C(O)c1cccc(-c2ccc(/C=N/Nc3nc4nonc4nc3Nc3ccc(F)cc3)o2)c1 | 90 | 19 | 7 | 8 | IC50 [5]: > 1 µM; IC50 [7]: > 20 µM; IC50 [8]: 13 µM
20 | CS(=O)(=O)Nc1ccc(C2=NN(C(=O)CCCC(=O)O)C(c3ccco3)C2)cc1 (configuration not stated) |  | > 20 | > 20 | > 20 | IC50 [7]: > 20 µM; IC50 [8]: > 20 µM
21 | Nc1nc(O)c2nc3c(nc2n1)C(=O)N(c1ccc(C(=O)NC(CCC(=O)O)C(=O)O)cc1)C3 (configuration not stated) | 0 |  |  |  | 
22 | O=C(CSc1nnn(-c2ccc(O)cc2)n1)NCc1cccc(C(=O)O)c1 | 0 |  |  |  | inhibition at 20 µM [6]: 9%; inhibition at 20 µM [9]: 34%
23 | COc1cc(Cl)c(/C=C2\S/C(=N/c3cccc(C(=O)O)c3)N(C)C2=O)cc1OC | 0 | > 20 | > 20 | > 20 | IC50 [7]: > 20 µM; IC50 [8]: > 20 µM
24 | CC1=NN(c2ccc(S(N)(=O)=O)cc2)C(=O)/C1=C\c1ccc(-c2ccccc2C(=O)O)o1 | 5 |  |  |  | inhibition at 20 µM [6]: 24%; inhibition at 20 µM [9]: 20%
25 | O=C(O)COc1ccc(/C=N/NC(=O)c2ccc(O)cc2)cc1OCC(=O)O | 9 |  |  |  | 
26 | COc1cc(/C=C2/NC(=O)N(CC(=O)Nc3ccc(C)cc3)C2=O)ccc1OCc1cccc(C(=O)O)c1 | 0 |  |  |  | inhibition at 20 µM [6]: 26%; inhibition at 20 µM [9]: 43%
27 | CN(Cc1cnc2nc(N)nc(N)c2n1)c1ccc(C(=O)NC(CCCCN)C(=O)O)cc1 (configuration not stated) | 0 |  |  |  | 
28 | COc1cc(OC)c(/C=C2\S/C(=N/c3ccc(C(=O)O)cc3)N(C)C2=O)cc1Br | 4 |  |  |  | 
29 | Nc1nc(O)c2nc(CCCNc3ccc(C(=O)NC(CCC(=O)O)C(=O)O)cc3)cnc2n1 (configuration not stated) | 0 | > 20 | > 20 | > 20 | IC50 [7]: > 20 µM; IC50 [8]: > 20 µM
